In patent US4758312A, “Method for in situ corrosion detection using electrochemically active compounds” (Nalco Chemical Company, priority 1987, dated 1988):

Key:
[1] = Commercial tetrazolium compounds, detection of iron corrosion (Example 4); conditions: 0.1 percent solution, one percent sodium chloride
[2] = Corrosion detection under typical cooling water conditions in recirculation tank (Example 7); conditions: continuous 4 ppm feed from day 4, Inhibitor A
[3] = Water solubility of reduced form (formazan); format: physicochemical; conditions: formazan of the synthesized tetrazolium compound
Description: Because the reduced forms of the commercially available tetrazolium salts tested in Example 4 are insoluble, they would present a measurement problem when used in an actual corrosion detection test. The reduced form (the formazan) would precipitate at the corrosion site and be difficult to detect quantitatively in the water sample taken far from the corrosion site. Introduction of a functional group to give water solubility to the reduced form was done to eliminate this problem. Examples of such functional groups are carboxy (COOH), hydroxy (OH), sulfonic (OSO3 H), amino (NH2), etc. These could be introduced on any of the three "R" groups in the generalized tetrazolium structure given below by choosing the appropriate organic compound to be used in the synthesis. [drawing 4]

Water solubility of formazan formed [3] | Compound | Time to Color [1] | Formazan level, stabilized [2]
 | c1ccc(-c2nn(-c3ccccc3)[n+](-c3ccc(-c4ccc(-[n+]5nc(-c6ccccc6)nn5-c5ccccc5)cc4)cc3)n2)cc1 [Compound 8 (Table 6), 2,2',5,5'-tetraphenyl-3,3'(p-diphenylene)ditetrazolium chloride] | 35 min | 
water soluble | O=C(O)c1ccc(-n2nc(-c3ccccc3)n[n+]2-c2ccccc2)cc1 [tetrazolium compound, 2-(p-carboxyphenyl)-3,5-diphenyltetrazolium bromide] |  | 2-3 ppb
